According to the supplement of paper PMC10331698:
± gives the standard deviation of the averaged measurements.

Assays:
Assay in all cases: level (log10 ratio to DMSO vehicle control); higher = higher biomarker level / cell amount than vehicle control
[1] = compound: C=CC(=O)OCC(F)(F)C(F)(F)C(F)(F)C(F)(F)COC(=O)C=C [1H,1H,6H,6H-Perfluorohexane-1,6-diol diacrylate]; conditions: 6700 nM; in DMSO
Procedure: (§1)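 BioMAP Diversity Plus panel of 12 human primary cell co-culture systems (3C, 4H, LPS, SAg, BT, BF4T, BE3C, CASM3C, HDF3CGF, KF3CT, MyoF, Mphg). Compounds were added 1 h before stimulation and left for 24 h (MyoF 48 h; BT 72 h for soluble read-outs or 6 d for IgG). Biomarkers were read by ELISA, cytotoxicity by SRB, PBMC viability and proliferation by Alamar Blue. Each well value was divided by the mean of 8 DMSO control wells on the same plate and log10 transformed; duplicate blinded samples were tested at 4 concentrations.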

[2] = compound: FC(F)(I)C(F)(F)C(F)(F)C(F)(F)C(F)(F)C(F)(F)I [1,6-Diiodoperfluorohexane]; conditions: 6700 nM; in DMSO
Procedure: as §1

[3] = compound: O=C(CC(=O)C(F)(F)C(F)(F)C(F)(F)F)c1cccs1 [(Perfluorobutyryl)-2-thenoylmethane]; conditions: in DMSO
Procedure: as §1

[4] = compound: O=C(Cl)C(F)(F)C(F)(F)C(F)(F)C(=O)Cl [Hexafluoroglutaryl chloride]; conditions: in DMSO
Procedure: as §1

[5] = compound: O=C(O)C(F)(F)C(F)(F)C(=O)O [Tetrafluorosuccinic acid]; conditions: in DMSO
Procedure: as §1

[6] = compound: O=C(O)C(F)(F)C(F)(F)C(F)(F)C(F)(F)C(F)(F)C(F)(F)C(F)(F)F [Perfluorooctanoic acid]; conditions: in DMSO
Procedure: as §1

[7] = compound: OCC(F)(F)C(F)(F)C(F)(F)C(F)(F)C(F)(F)C(F)(F)C(F)(F)C(F)(F)C(F)(F)C(F)(F)C(F)(F)F [11:1 Fluorotelomer alcohol]; conditions: in DMSO
Procedure: as §1

[8] = compound: OCCCC(F)(F)C(F)(F)C(F)(F)C(F)(F)C(F)(F)C(F)(F)C(F)(F)C(F)(F)F [3-(Perfluorooctyl)propanol]; conditions: 6700 nM; in DMSO
Procedure: as §1

[9] = compound: OCCCCC(F)(F)C(F)(F)C(F)(F)C(F)(F)F [4:4 Fluorotelomer alcohol]; conditions: in DMSO
Procedure: as §1

| Test System | level (log10) [1] | level (log10) [2] | level (log10) ([3]; 6700 nM) | level (log10) ([3]; 20000 nM) | level (log10) ([4]; 6700 nM) | level (log10) ([4]; 20000 nM) | level (log10) ([4]; 60000 nM) | level (log10) ([5]; 6700 nM) | level (log10) ([5]; 20000 nM) | level (log10) ([5]; 60000 nM) | level (log10) ([6]; 6700 nM) | level (log10) ([6]; 20000 nM) | level (log10) ([6]; 60000 nM) | level (log10) ([7]; 1100 nM) | level (log10) ([7]; 3300 nM) | level (log10) ([7]; 10000 nM) | level (log10) [8] | level (log10) ([9]; 6700 nM) | level (log10) ([9]; 20000 nM) | level (log10) ([9]; 60000 nM) |
| --- | --- | --- | --- | --- | --- | --- | --- | --- | --- | --- | --- | --- | --- | --- | --- | --- | --- | --- | --- | --- |
| lMphg:CD69 | -0.06 ± 0.0042 | -0.01 | -0.169 ± 0.049 | -0.23 ± 0.013 | -0.021 ± 0.011 | -0.032 ± 0.018 | -0.0135 ± 0.029 | -0.048 ± 0.021 | 0.0125 ± 0.047 | 0.059 ± 0.073 | -0.048 ± 0.028 | -0.0655 ± 0.05 | -0.033 ± 0.11 | -0.038 ± 0.017 | -0.103 ± 0.028 | -0.0685 ± 0.0078 | 0.018 ± 0.04 | -0.0475 ± 0.04 | -0.063 ± 0.018 | -0.014 ± 0.045 |
| KF3CT:CXCL8/IL-8 | 0.0005 ± 0.021 | -0.071 | -0.037 ± 0.027 | -0.027 ± 0.025 | -0.0215 ± 0.013 | -0.0275 ± 0.035 | -0.0085 ± 0.0092 | -0.029 ± 0.011 | -0.031 ± 0.0042 | -0.0175 ± 0.026 | 0.015 ± 0.0057 | 0.0225 ± 0.0064 | -0.011 ± 0.0099 | 0 ± 0.013 | 0.015 | 0.014 ± 0.025 | 0.003 ± 0.0057 | 0.0185 ± 0.037 | -0.006 ± 0.023 | 0.0205 ± 0.036 |
| MyoF:SRB | -0.0185 ± 0.013 | -0.209 | -0.0225 ± 0.022 | -0.0395 ± 0.0035 | 0 ± 0.011 | 0.003 ± 0.0028 | -0.003 ± 0.018 | -0.0035 ± 0.0035 | -0.0135 ± 0.0021 | -0.01 ± 0.0014 | 0.0025 ± 0.0035 | 0.0065 ± 0.012 | -0.034 ± 0.0057 | 0 ± 0.0042 | -0.0015 ± 0.012 | 0.0015 ± 0.016 | -0.017 ± 0.0014 | -0.0025 ± 0.0035 | -0.0065 ± 0.0021 | 0.006 ± 0.017 |
| 3C:CD62E/E-Selectin | -0.066 ± 0.0057 | 0.005 | -0.0365 ± 0.036 | -0.019 ± 0.0014 | -0.0315 ± 0.049 | -0.02 ± 0.038 | -0.0025 ± 0.012 | -0.0015 ± 0.016 | -0.0155 ± 0.0064 | -0.01 ± 0.0099 | 0.001 ± 0.0042 | 0.0195 ± 0.0035 | 0.0725 ± 0.0078 | -0.0125 ± 0.013 | 0.008 ± 0.0028 | 0.0155 ± 0.0078 | -0.024 ± 0.0099 | -0.004 ± 0.0014 | -0.0055 ± 0.032 | 0.0105 ± 0.012 |
| HDF3CGF:CD54/ICAM-1 | -0.175 ± 0.038 | -0.343 | -0.0475 ± 0.011 | -0.0295 ± 0.0064 | -0.0015 ± 0.0035 | -0.007 ± 0.0042 | -0.001 ± 0.0099 | -0.0055 ± 0.03 | -0.006 ± 0.0071 | -0.0105 ± 0.016 | 0.005 ± 0.0057 | 0.0055 ± 0.011 | -0.0035 ± 0.005 | 0.001 ± 0.0071 | -0.0075 ± 0.021 | -0.012 ± 0.0014 | -0.113 ± 0.15 | -0.0135 ± 0.0064 | -0.003 ± 0.011 | -0.0125 ± 0.013 |
| KF3CT:MMP-9 | -0.035 ± 0.064 | -0.136 | -0.107 ± 0.027 | -0.122 ± 0.012 | -0.0515 ± 0.013 | -0.0255 ± 0.028 | -0.024 ± 0.03 | -0.0305 ± 0.018 | -0.024 ± 0.031 | -0.0085 ± 0.035 | -0.0225 ± 0.026 | 0.003 ± 0.0099 | 0.028 ± 0.011 | -0.042 ± 0.0099 | -0.071 ± 0.027 | -0.0545 ± 0.026 | -0.053 ± 0.0085 | -0.011 ± 0.013 | -0.003 ± 0.034 | 0.011 ± 0.021 |
| MyoF:CXCL8/IL-8 | -0.049 ± 0.035 | 0.153 | -0.0155 ± 0.0078 | 0.016 ± 0.018 | -0.017 ± 0.0071 | 0.014 ± 0.011 | 0.03 ± 0.0085 | -0.013 ± 0.0099 | -0.019 ± 0.014 | 0.006 ± 0.025 | 0.022 ± 0.0028 | 0.0725 ± 0.026 | 0.078 ± 0.02 | -0.0155 ± 0.035 | -0.0145 ± 0.037 | 0 ± 0.04 | -0.0505 ± 0.033 | 0.041 ± 0.075 | 0.0345 ± 0.1 | 0.0695 ± 0.13 |
